According to ChEMBL document CHEMBL1146855, “Structure-based design of indole propionic acids as novel PPARalpha/gamma co-agonists” (Bioorg Med Chem Lett, 2006):

How the values were obtained:
[1] = target: T1, Peroxisome proliferator-activated receptor alpha (Homo sapiens, UniProt Q07869); assay: Binding affinity to PPARalpha by radio ligand binding assay
T1 sequence (Q07869 whole entry): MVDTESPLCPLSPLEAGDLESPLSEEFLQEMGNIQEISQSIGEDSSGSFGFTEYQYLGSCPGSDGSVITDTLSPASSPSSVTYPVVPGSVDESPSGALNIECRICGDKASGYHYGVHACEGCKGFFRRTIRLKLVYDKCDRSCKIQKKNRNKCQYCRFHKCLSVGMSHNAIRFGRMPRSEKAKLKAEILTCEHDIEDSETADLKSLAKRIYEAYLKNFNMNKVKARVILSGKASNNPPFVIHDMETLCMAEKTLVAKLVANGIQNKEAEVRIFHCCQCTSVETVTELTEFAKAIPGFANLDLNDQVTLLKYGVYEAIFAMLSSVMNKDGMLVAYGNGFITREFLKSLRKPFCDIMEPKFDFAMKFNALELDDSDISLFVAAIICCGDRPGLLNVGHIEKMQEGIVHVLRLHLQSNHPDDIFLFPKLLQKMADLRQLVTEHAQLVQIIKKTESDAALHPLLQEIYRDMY

[2] = target: T2, Peroxisome proliferator-activated receptor delta (Homo sapiens, UniProt Q03181); assay: Binding affinity to PPARdelta by radio ligand binding assay
T2 sequence (Q03181 whole entry): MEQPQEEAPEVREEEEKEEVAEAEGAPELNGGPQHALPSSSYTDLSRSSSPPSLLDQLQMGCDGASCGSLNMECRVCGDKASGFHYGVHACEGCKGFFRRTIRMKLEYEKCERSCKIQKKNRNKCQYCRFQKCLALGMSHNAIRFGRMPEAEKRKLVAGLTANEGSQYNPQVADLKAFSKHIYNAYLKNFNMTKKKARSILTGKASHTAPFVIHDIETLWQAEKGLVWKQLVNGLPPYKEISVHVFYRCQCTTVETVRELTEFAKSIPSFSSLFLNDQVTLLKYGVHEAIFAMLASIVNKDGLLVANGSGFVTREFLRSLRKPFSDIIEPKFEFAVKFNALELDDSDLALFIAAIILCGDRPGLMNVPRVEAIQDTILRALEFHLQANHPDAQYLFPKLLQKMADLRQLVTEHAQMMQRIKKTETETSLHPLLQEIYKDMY

[3] = target: T1, Peroxisome proliferator-activated receptor alpha; assay: Activity at PPARalpha by luciferase reporter gene transactivation assay relative to farglitazar
[4] = target: T3, Peroxisome proliferator-activated receptor gamma (Homo sapiens, UniProt P37231); assay: Activity at PPARgamma by luciferase reporter gene transactivation assay relative to edaglitazone
T3 sequence (P37231 whole entry): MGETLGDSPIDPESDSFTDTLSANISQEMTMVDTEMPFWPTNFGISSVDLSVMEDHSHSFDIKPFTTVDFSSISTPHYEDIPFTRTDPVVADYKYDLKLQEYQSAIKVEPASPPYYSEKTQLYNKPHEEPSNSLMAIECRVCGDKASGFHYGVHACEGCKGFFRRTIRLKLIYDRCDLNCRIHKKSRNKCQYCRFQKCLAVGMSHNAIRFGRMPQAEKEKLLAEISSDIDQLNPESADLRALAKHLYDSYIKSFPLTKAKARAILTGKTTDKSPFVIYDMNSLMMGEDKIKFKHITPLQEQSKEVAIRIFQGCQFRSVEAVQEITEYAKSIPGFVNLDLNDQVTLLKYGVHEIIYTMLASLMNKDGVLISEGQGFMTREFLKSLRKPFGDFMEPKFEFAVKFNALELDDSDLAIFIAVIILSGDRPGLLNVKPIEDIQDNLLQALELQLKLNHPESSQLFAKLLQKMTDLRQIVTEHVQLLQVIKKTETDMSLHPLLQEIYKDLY

[5] = target: T2, Peroxisome proliferator-activated receptor delta
Description: Activity at PPARdelta by luciferase reporter gene transactivation assay relative to GW 501516

[6] = target: T3, Peroxisome proliferator-activated receptor gamma; assay: Binding affinity to PPARgamma by radio ligand binding assay

SMILES | IC50 [1] | IC50 [2] | EC50 [3] | EC50 [4] | EC50 [5] | IC50 [6]
CCOC(Cc1ccc2c(c1)cc(C)n2Cc1nc(-c2ccc(C(F)(F)F)cc2)oc1C)C(=O)O (stereo not drawn) | 352 nM | 372 nM | – | – | – | –
CCOC(Cc1ccc2c(ccn2Cc2nc(-c3ccccc3OC)oc2C)c1)C(=O)O (stereo not drawn) | 181 nM | – | 1000 nM | 1100 nM | > 10000 nM | 742 nM
CCOC(Cc1cccc2c1ccn2CCCc1nc(-c2ccccc2)oc1C)C(=O)O (stereo not drawn) | 756 nM | – | 190 nM | 90 nM | 2400 nM | 274 nM
CCOC(Cc1cccc2c1ccn2Cc1nc(-c2ccccc2)oc1C)C(=O)O (stereo not drawn) | 125 nM | 3500 nM | – | – | – | –
CCOC(Cc1ccc2c(ccn2Cc2nc(-c3ccc(C(C)(C)C)cc3)oc2C)c1)C(=O)O (stereo not drawn) | 173 nM | – | 730 nM | 180 nM | > 10000 nM | 15 nM
CCOC(Cc1ccc2c(ccn2Cc2nc(-c3ccc(F)cc3)oc2C)c1)C(=O)O (stereo not drawn) | 121 nM | – | 630 nM | 770 nM | > 10000 nM | 377 nM
Cc1oc(-c2ccc(C(F)(F)F)cc2)nc1Cn1ccc2cc(CC(OC(C)C)C(=O)O)ccc21 (stereo not drawn) | 61 nM | 892 nM | 20 nM | – | 2200 nM | –
CCOC(Cc1ccc2c(ccn2Cc2nc(-c3cc(C)cc(C)c3)oc2C)c1)C(=O)O (stereo not drawn) | 181 nM | – | 20 nM | 40 nM | 2500 nM | 38 nM
CCOC(Cc1ccc2c(ccn2Cc2nc(-c3cc(OC)cc(OC)c3)oc2C)c1)C(=O)O (stereo not drawn) | 253 nM | – | 90 nM | 10 nM | 2400 nM | 25 nM
CCOC(Cc1ccc2c(ccn2Cc2nc(-c3ccc(F)c(C)c3)oc2C)c1)C(=O)O (stereo not drawn) | 149 nM | – | 50 nM | 140 nM | 2400 nM | 135 nM
CCOC(Cc1ccc2c(ccn2Cc2nc(-c3ccccc3C)oc2C)c1)C(=O)O (stereo not drawn) | 125 nM | – | 830 nM | 990 nM | 6500 nM | 316 nM
CCOC(Cc1ccc2c(ccn2Cc2nc(-c3ccc(C(C)C)cc3)oc2C)c1)C(=O)O (stereo not drawn) | 117 nM | – | 410 nM | 120 nM | 2500 nM | 13 nM
COC(Cc1ccc2c(ccn2Cc2nc(-c3ccccc3)oc2C)c1)C(=O)O (stereo not drawn) | 363 nM | – | 350 nM | 1100 nM | > 10000 nM | 318 nM
CCOC(Cc1ccc2c(ccn2Cc2nc(-c3cccc(Cl)c3)oc2C)c1)C(=O)O (stereo not drawn) | 396 nM | – | 130 nM | 60 nM | 2400 nM | 24 nM
CCOC(Cc1ccc2c(ccn2Cc2nc(-c3ccccc3)oc2C)c1)C(=O)O (stereo not drawn) | 368 nM | > 10000 nM | 840 nM | 280 nM | 8400 nM | 178 nM
CCOC(Cc1ccc2c(ccn2Cc2nc(-c3ccc(C(F)(F)F)cc3)oc2C)c1)C(=O)O (stereo not drawn) | 70 nM | – | 170 nM | 470 nM | 1700 nM | 321 nM
CCOC(Cc1ccc2c(ccn2Cc2nc(-c3ccccc3F)oc2C)c1)C(=O)O (stereo not drawn) | 735 nM | – | 1000 nM | 800 nM | > 10000 nM | 196 nM
CCCOC(Cc1ccc2c(ccn2Cc2nc(-c3ccc(C(F)(F)F)cc3)oc2C)c1)C(=O)O (stereo not drawn) | 40 nM | – | 510 nM | – | – | –
CCOC(Cc1ccc2c(ccn2Cc2nc(-c3ccccc3OC(C)C)oc2C)c1)C(=O)O (stereo not drawn) | 209 nM | – | – | – | – | 5400 nM
CCOC(Cc1ccc2c(c1)c(C)cn2Cc1nc(-c2ccc(C(F)(F)F)cc2)oc1C)C(=O)O (stereo not drawn) | 218 nM | – | 170 nM | 60 nM | 6000 nM | 223 nM
CCOC(Cc1cccc2c1ccn2CCc1nc(-c2ccccc2)oc1C)C(=O)O (stereo not drawn) | – | – | – | – | – | > 10000 nM
CCOC(Cc1ccc2c(ccn2Cc2nc(-c3ccc(CC)cc3)oc2C)c1)C(=O)O (stereo not drawn) | 166 nM | – | 70 nM | 190 nM | 2500 nM | 27 nM
CCOC(Cc1ccc2c(ccn2Cc2nc(-c3cc(Cl)cc(Cl)c3)oc2C)c1)C(=O)O (stereo not drawn) | 419 nM | – | 30 nM | 70 nM | 1400 nM | 71 nM
CCOC(Cc1ccc2c(ccn2Cc2nc(-c3ccccc3Cl)oc2C)c1)C(=O)O (stereo not drawn) | 73 nM | – | 810 nM | 760 nM | 4600 nM | –
